Reference: PubChem BioAssay AID488890 (Southern Research Specialized Biocontainment Screening …, 2010)
Results filed as inconclusive are left out. Active and inactive are the calls of the source. How the calls were made is not given here.

Test system: Mycobacterium tuberculosis non-replicating, growth inhibition
Test: growth inhibition of non-replicating M. tuberculosis (AID 488890)

Row | SMILES | IC50
1 | CCS(=O)(=O)c1ncc(Cl)c(C(=O)Nc2ccc(S(=O)(=O)N3CCC(C)CC3)cc2)n1 | 9.7 µM
2 | Cc1cccc(NC(=O)COC(=O)c2cc3ccccc3oc2=O)c1 | 14.2 µM (inactive)
3 | N#CC1=C(c2ccccc2)/C(=C/c2ccccc2)OC1=O | 2.82 µM
4 | O=C(NC12CC3CC(CC(C3)C1)C2)c1ccc([N+](=O)[O-])o1 | 5.44 µM
5 | c1ccc(OCc2nn3c(-c4ccccn4)nnc3s2)cc1 | 23 µM (inactive)
6 | CC[n+]1c(/C=C(\C)Nc2ccccc2)sc2ccccc21 | 6.34 µM
7 | CCCCOC(=O)Cn1c(-c2ccccc2)nc2ccccc2c1=O | 11.3 µM (inactive)
8 | COc1ccc(C2(O)CCN(CCCCOc3ccccc3)CC2)cc1 | 18.1 µM (inactive)
9 | COc1ccc(Cc2nnc(-c3ccccc3)o2)cc1 | 0.19 µM
10 | Cc1cc(C)cc(NC(=O)COC(=O)CC2CCCC2)c1 | 21.5 µM (inactive)
11 | Cc1nn2c(NCCN(C)C)c3c(nc2c1-c1ccccc1)CCCC3 | 5.07 µM
12 | O=C(COc1ccc(-c2ccccc2)cc1)Nc1cccnc1 | 3.28 µM
13 | CC(C)C(=O)Nc1cccc(-c2nc3ccccc3c(=O)o2)c1 | 3.79 µM
14 | FC(F)(Cl)c1nnc2ccc(Cl)nn12 | 1.38 µM
15 | COc1ccc(OC(=O)C(C)N2C(=O)c3ccccc3C2=O)cc1 (stereo not given) | 12.3 µM (inactive)
16 | S=c1[nH]cnc2sc(-c3ccccc3)cc12 | 33.3 µM (inactive)
17 | COc1ccc(NC(=O)c2cc([N+](=O)[O-])ccc2O)cc1 | 7.71 µM
18 | O=C(Oc1ccccc1Cl)c1ccc2c(=O)n3c(nc2c1)CCC3 | 2.28 µM
19 | O=C(Cc1ccccc1)Nc1ccc(C(=O)NCC2COc3ccccc3O2)cc1 (stereo not given) | 28.3 µM (inactive)
20 | O=C(OCc1ccc(Cl)c(Cl)c1)c1ccccn1 | 2.27 µM
21 | Cc1ccc(OC(=O)c2sc3ncn(C)c(=O)c3c2C)cc1 | 14.2 µM (inactive)
22 | C/C(=C\C(=O)c1ccc(Br)cc1)NNC(=O)c1ccccc1 | 0.38 µM
23 | O=C(COc1ccc(Cl)cc1)OCC(=O)N1CCCc2ccccc21 | 12.9 µM (inactive)

Row | SMILES | IC50
24 | O=[N+]([O-])c1ccc(Nc2ccccc2)c2nonc12 | 2.87 µM
25 | COC(=O)c1cn(NC(=O)c2cnccn2)c(=O)c2ccccc12 | 8.67 µM
26 | Nn1c(SCCOc2ccc(Cl)cc2)nnc1-c1cccnc1 | 23.5 µM (inactive)
27 | Cc1ccc(S(=O)(=O)CCC(=O)Nc2nc(-c3ccncc3)cs2)cc1 | 14.6 µM (inactive)
28 | CC(NC(=O)c1cccc(F)c1)C1CC2CCC1C2 (stereo not given) | 0.16 µM
29 | O=[N+]([O-])c1c(Nc2ccccn2)cc(Cl)c2nonc12 | < 0.1 µM
30 | Cn1ccsc1=NC(=O)c1ccccc1F | 22.4 µM (inactive)
31 | O=C(Nc1cccnc1)c1cc(Cl)ccc1Cl | 18.8 µM (inactive)
32 | CCOC(=O)C(=O)NC12CC3CC(CC(C3)C1)C2 | 6.5 µM
33 | O=[N+]([O-])c1ccc2nc(-c3ccccn3)[nH]c2c1 | 18.3 µM (inactive)
34 | CCCCn1nnc(NC(=O)COc2ccc(Cl)c(C)c2)n1 | 7.56 µM
35 | O=C(NNc1nc2ccccc2s1)Nc1ccc(F)cc1 | 14.4 µM (inactive)
36 | Cc1cccc(NC(=O)c2cc3ccccc3o2)c1 | 3.23 µM
37 | CC1(c2nnc(Cc3ccccc3)o2)CC(c2ccccc2[N+](=O)[O-])=NO1 (stereo not given) | 10.5 µM (inactive)
38 | CCOC(=O)Cn1c2ccc(F)cc2c2nc(C)sc21 | 13.8 µM (inactive)
39 | O=C(COC(=O)CC1CCCC1)Nc1ccc(Cl)cn1 | 17.2 µM (inactive)
40 | CN1/C(=C\C(=O)COC(=O)c2ccc([N+](=O)[O-])o2)C(C)(C)c2ccccc21 | 3.61 µM
41 | CCN(CC)CCCN(C(=O)c1ccco1)c1nc(-c2ccc(C)cc2)cs1 | 21.9 µM (inactive)
42 | CC12CC3CC(C)(C1)CC(C(=O)N1CCCC1)(C3)C2 | 24 µM (inactive)
43 | c1ccc(-c2noc(CC3CCCCC3)n2)nc1 | 1.18 µM
44 | Cc1ccc(CCC(=O)Nc2cc(Cl)ccc2Cl)o1 | 3.79 µM
45 | CC(C)c1nnc(NC(=O)c2c(O)c3cccc4c3n(c2=O)CCC4)s1 | 1.24 µM
46 | COC(=O)c1ccc(COC(=O)CCS(=O)(=O)c2ccc(C)cc2)cc1 | 19 µM (inactive)

Row | SMILES | IC50
47 | S=c1c2c(nc3nc[nH]n13)CCC2 | 4.68 µM
48 | CN(C)CCCN(C(=O)CCc1ccccc1)c1nc2ccc(Br)cc2s1 | 14.2 µM (inactive)
49 | CNC(=O)COC(=O)c1ccc(-c2nc3ccccc3s2)s1 | 4.97 µM
50 | CCCc1cc(C(=O)Nc2ccccc2SC)no1 | 12.1 µM (inactive)
51 | O=c1c2ccc(Cl)cc2nc(-c2cccc(C(F)(F)F)c2)n1O | 0.33 µM
52 | Cc1cc(C)n2nc(S(=O)(=O)Nc3c(Cl)cccc3Cl)nc2n1 | 3.15 µM
53 | COC(=O)C1=C(C)N(Cc2ccccc2)C(=NCc2ccccc2)N[C@H]1c1cccc(F)c1 | 6.37 µM
54 | CC(=O)c1ccc(NC(=O)CCc2ccc(C)o2)cc1 | 25.8 µM (inactive)
55 | Cc1nc2ccc(OC(=O)c3ccccc3)cc2s1 | 20.9 µM (inactive)
56 | Cc1ccc2nc(C)c3c(c2c1)COC3 | 29.8 µM (inactive)
57 | CC(=O)Oc1c(C)cc(Cl)cc1C(=O)Nc1ccc([N+](=O)[O-])cc1Cl | 2.71 µM
58 | Cc1cc(=O)n2cccc(O)c2n1 | 6.1 µM
59 | CC(C)n1c(=S)[nH]c2ccccc2c1=O | 14.2 µM (inactive)
60 | Fc1cccc2sc(N3CCCC3)nc12 | 23.1 µM (inactive)
61 | O=[N+]([O-])c1cc(Cl)cc(/C=N\Nc2ccccn2)c1O | 1.18 µM
62 | CC(C)(C)NC(=O)C(=O)NNC(=O)COc1ccc(Br)cc1 | 12 µM (inactive)
63 | Fc1ccc(COc2ccc(-c3nnco3)cc2)cc1 | 10.8 µM (inactive)
64 | CC(C)(C)c1csc(NC(=O)c2ccccc2O)n1 | 19.6 µM (inactive)
65 | O=[N+]([O-])c1ccc(CN2CCN(c3ccccc3)CC2)o1 | 0.64 µM
66 | CC(C)CCC1=NN(C(=O)c2ccco2)C(O)(C(F)(F)F)C1 (stereo not given) | 0.94 µM
67 | NNC(=O)COc1cccc(Oc2ccccc2)c1 | 25.2 µM (inactive)
68 | CCc1ccc2c(c1)Sc1ccccc1CC2N1CCN(C)CC1 (stereo not given) | 13.6 µM (inactive)
69 | O=c1oc(/C=C/c2ccc([N+](=O)[O-])s2)nc2ccccc12 | 8.47 µM

Row | SMILES | IC50
70 | CCCCCCn1c(=O)c(C(=O)Nc2cnccn2)c(O)c2ccccc21 | 2.4 µM
71 | Nc1ccc2cc(Br)ccc2c1 | 0.44 µM
72 | C=C(C)C1Cc2c(C)nn(-c3nc(C)cc(C)n3)c2C1 (stereo not given) | 11.6 µM (inactive)
73 | Cc1occc1C(=O)N/N=C/c1ccc[nH]1 | 11.9 µM (inactive)
74 | CCS(=O)(=O)c1ncc(Cl)c(C(=O)Nc2ccc(S(=O)(=O)N(C)c3ccccc3)cc2)n1 | 7.18 µM
75 | CCC1CCc2sc(C(=O)NNC(=O)c3ccncc3)cc2C1 (stereo not given) | 1.97 µM
76 | O=C(Oc1cccnc1)c1ccc(Cl)c(Cl)c1 | 3.86 µM
77 | CCOC(=O)C1CCCc2c1[nH]c1c(C(N)=O)cccc21 (stereo not given) | 9.99 µM
78 | O=C(COc1ccccc1)Nc1nnc(-c2ccc(Cl)cc2)o1 | 21.9 µM (inactive)
79 | O=c1c2cc(Br)ccc2nc(-c2cccc(C(F)(F)F)c2)n1O | 0.43 µM
80 | O=C(NC1CCOc2ccccc21)c1ccc(Cl)nc1 (stereo not given) | 1.46 µM
81 | Cc1ccc(C(=O)COC(=O)CCc2ccc(S(=O)(=O)N3CCCCC3)cc2)cc1 | 23 µM (inactive)
82 | CCN1C(=O)CC(N2CCC(c3nc4ccccc4[nH]3)CC2)C1=O (stereo not given) | 34.2 µM (inactive)
83 | O=C1/C(=C/C=C/c2ccccc2)Oc2c1ccc(O)c2CN1CCN(CCO)CC1 | 36.8 µM (inactive)
84 | Cc1ccc(S(=O)(=O)NCC(=O)OCCOc2cccc(Cl)c2)cc1 | 27.7 µM (inactive)
85 | Cc1c(Cl)cccc1NC(=O)C1COc2ccccc2O1 (stereo not given) | 12.1 µM (inactive)
86 | CCOC(=O)c1ccc(N=C(CC)c2c(O)n(C)c(=O)n(C)c2=O)cc1 | 8.28 µM
87 | Cc1ccc2nc(CCc3nc4ccc(C)cc4[nH]3)[nH]c2c1 | 17.1 µM (inactive)
88 | CC(NC(=O)c1cc2ccccc2oc1=O)c1ccccc1 (stereo not given) | 0.86 µM
89 | O=C(Nc1ncccn1)c1ccc([N+](=O)[O-])o1 | 8.49 µM
90 | COC(=O)COc1ccc(S(=O)(=O)N2CCN(c3ccccc3F)CC2)cc1 | 27.9 µM (inactive)
91 | O=C(Nc1sc2c(c1C(=O)O)CCCCC2)c1ccccc1F | 15.6 µM (inactive)
92 | Cc1cccc(NC(=O)CCSc2nnc(Cc3ccccc3)o2)c1 | 4.09 µM

Row | SMILES | IC50
93 | CCOc1ccc(OC(=O)c2ccc3c(=O)n4c(nc3c2)CCC4)cc1 | 0.5 µM
94 | O=Cc1ccnc(-c2ccc(OC(=O)c3ccco3)cc2)n1 | 18.2 µM (inactive)
95 | COc1ccc(NC(=O)CCCN2C(=O)/C(=C\c3ccco3)SC2=S)cc1 | 7.93 µM
96 | Cc1ccc(NC(=S)C2=C(O)c3sccc3N(C)S2(=O)=O)cc1 | 22.3 µM (inactive)
97 | Cc1cccc(NCCC(=O)c2ccc([N+](=O)[O-])cc2)c1C | 3.58 µM
98 | C/C(=N\NC(=O)c1c[nH]c2ccccc12)c1ccccn1 | 6.38 µM
99 | CNC(=S)N1CCN(c2c(F)cc3c(=O)c(C(=O)O)cn(C4CC4)c3c2OC)CC1C (stereo not given) | 0.42 µM
100 | O=C(Nc1nnc(-c2ccccc2Cl)o1)c1cccnc1 | 23.2 µM (inactive)
101 | CCOC(=O)C1CCCN(Cc2nc(Cc3ccccc3Cl)no2)C1 (stereo not given) | 27.1 µM (inactive)
102 | O=C1c2cccc3cc([N+](=O)[O-])cc(c23)C(=O)N1c1ccccc1O | 15.1 µM (inactive)
103 | O=C(OCn1nnc2ccccc2c1=O)C1CCCCC1 | 22 µM (inactive)
104 | O=C(N/N=C/c1cc(Br)cc(Cl)c1O)c1ccc2c(c1)OCO2 | < 0.1 µM
105 | Cc1ccnc(NC(=O)CCc2c[nH]c3ccccc23)c1 | 5.51 µM
106 | CN(C)c1ccc(NC(=O)COC(=O)c2cc(Cl)ccc2[N+](=O)[O-])cc1 | 8.95 µM
107 | O=C(CNC(=O)c1ccc(Br)cc1)c1ccc(Br)cc1 | 18.3 µM (inactive)
108 | C=CCN1C(=O)C2(NNc3ccccc3O2)c2ccccc21 (stereo not given) | 2.25 µM
109 | O=C(Nc1ncc([N+](=O)[O-])s1)c1cccs1 | 11.2 µM (inactive)
110 | O=C(CCNc1ccc(Cl)cc1)c1cccs1 | 3.79 µM
111 | Cc1ccc(NC(=O)COC(=O)CCc2c[nH]c3ccccc23)cc1[N+](=O)[O-] | 4.83 µM
112 | CN(C)CCNc1c2c(c(C#N)c3nc4ccccc4n13)CCCC2 | 14.5 µM (inactive)
113 | CCc1ccc(N2C(=O)NC(=O)/C(=C\C=C\c3ccco3)C2=O)cc1 | 10.9 µM (inactive)
114 | O=C1NC(=O)N(Cc2ccco2)C(=O)/C1=C\c1cccn1CCOc1ccc(Cl)cc1 | 7.42 µM
115 | Cc1cc(C(=O)N/N=C/c2cccc(Cl)c2Cl)no1 | 1.01 µM
